Results taken from US20120003661A1, “METHODS AND DEVICES FOR THE SELECTIVE DETECTION OF MICROORGANISMS” (C3 JIAN, INC., priority 2010, published 2012).
“Also recorded” adds a separate entry of the source.

system: bacteria, fungi, and/or yeasts; format: binding; conditions: microorganism(s) listed as target(s) of the targeting peptide; wrapped target lists given cell by cell

Substance | Target(s)
1T-14 (ALAGLAGLISGK) | yeast and hyphal forms
1T-15 (DVILRVEAQ) | yeast and hyphal forms
1T-16 (IDMR) | yeast and hyphal forms
1T-17 (NNAIVYIS) | yeast and hyphal forms

same assay, conditions: microorganism(s) the targeting peptide binds, as listed in Table 2

Substance | Target(s)
1T-3 (VLGIAGGLDAYGELVGGN) | S. mutans, S. gordonii
1T-4 (LDAYGELVGGN) | L. casei; also recorded: S. mutans, S. gordonii, S. sanguinis,; also recorded: S. oralis, V. atypica,
1T-6 (KFINGVLSQFVLERK) | S. mutans
1T-7 (SQRIIEPVKSPQPYPGFSVS) | M. xanthus
1T-8 (FSVAACGEQRAVTFVLLIEDLI) | M. xanthus
1T-9 (WAWAESPRCVSTRSNIHALAFRVEVAALT) | M. xanthus
1T-10 (SPAGLPGDGDEA) | M. xanthus
1T-11 (RISE) | S. mutans, S. epidermidis, P. aeruginosa
1T-12 (FGNIFKGLKDVIETIVKWTAAK) | C. xerosis, C. striatum, S. epidermidis,; also recorded: S. mutans
1T-14 (ALAGLAGLISGK) | S. mutans, S. aureus, S. epidermidis,; also recorded: C. xerosis
1T-15 (DVILRVEAQ) | S. mutans
1T-16 (IDMR) | P. aeruginosa
1T-17 (NNAIVYIS) | S. mutans
1T-18 (YSKTLHFAD) | S. aureus, S. epidermidis, C. striatum,; also recorded: P. aeruginosa
1T-19 (PGAFRNPQMPRG) | S. aureus, S. epidermidis, P. aeruginosa
1T-22 (VPLDDGTRRPEVARNRDKDRED) | S. epidermidis, P. aeruginosa
1T-23 (PALVDLSNKEAVWAVLDDHS) | S. mutans, P. aeruginosa
1T-24 (EEAEEKLAEVSQAVKRLVR) | P. aeruginosa
1T-25 (VGLDVSVLVLFFGLQLLSVLLGAMIR) | S. aureus, S. epidermidis, C. xerosis,; also recorded: C. striatum, P. aeruginosa
1T-26 (LTILPTTFFAIIVPILAVAFIAYSGFKIKGIVEHKDQW) | S. mutans, S. aureus, S. epidermidis,; also recorded: C. jeikeium, C. xerosis,; also recorded: C. striatum, P. aeruginosa
1T-27 (ALFVSLEQFLVVVAKSVFALCHSGTLS) | S. mutans, S. aureus, S. epidermidis,; also recorded: C. jeikeium, C. xerosis,; also recorded: C. striatum, P. aeruginosa
1T-28 (VSRDEAMEFIDREWTTLQPAGKSHA) | P. aeruginosa

Substance | Target(s)
1T-29 (GSVIKKRRKRMSKKKHRKMLRRTRVQRRKLGK) | S. mutans, S. aureus, S. epidermidis,; also recorded: C. jeikeium, C. xerosis,; also recorded: C. striatum, P. aeruginosa
1T-30 (GKAKPYQVRQVLRAVDKLETRRKKGGR) | S. aureus, S. epidermidis, C. xerosis,; also recorded: C. striatum, P. aeruginosa
1T-31 (NATGTDIGEVTLTLGRFS) | S. mutans, P. aeruginosa
1T-32 (VSFLAGWLCLGLAAWRLGNA) | S. mutans
1T-33 (VRTLTILVIFIFNYLKSISYKLKQPFENNLAQSMISI) | S. aureus, S. epidermidis, C. jeikeium,; also recorded: C. xerosis, C. striatum,; also recorded: P. aeruginosa
1T-34 (AFWLNILLTLLGYIPGIVHAVYIIAKR) | S. aureus, S. epidermidis, C. jeikeium,; also recorded: C. xerosis, C. striatum,; also recorded: P. aeruginosa
1T-35 (EICLTLVFPIRGSYSEAAKFPVPIHIVEDGTVELPK) | P. aeruginosa
1T-37 (YIVGALVILAVAGLIYSMLRKA) | S. mutans, S. aereus, S. epidermidis,; also recorded: C. jeikeium, C. xerosis,; also recorded: C. striatum, P. aeruginosa
1T-38 (VMFVLTRGRSPRPMIPAY) | S. mutans, S. aereus, S. epidermidis,; also recorded: C. jeikeium, C. xerosis,; also recorded: C. striatum, P. aeruginosa
1T-39 (FGFCVWMYQLLAGPPGPPA) | S. mutans, P. aeruginosa
1T-40 (QRVSLWSEVEHEFR) | S. mutans, P. aeruginosa
1T-41 (KRGSKIVIAIAVVLIVLAGVWVW) | S. mutans, S. aureus, S. epidermidis,; also recorded: C. jeikeium, C. striatum,; also recorded: P. aeruginosa
1T-42 (TVLDWLSLALATGLFVYLLVALLRADRA) | S. aureus, S. epidermidis, C. xerosis,; also recorded: C. striatum, P. aeruginosa
1T-43 (DRCLSVLSWSPPKVSPLI) | C. jeikium, P. aeruginosa
1T-44 (DPALADFAAGMRAQVRT) | S. mutans, S. aureus, S. epidermidis,; also recorded: C. jeikeium, C. striatum,; also recorded: P. aeruginosa
1T-45 (WTKPSFTDLRLGFEVTLYFANR) | S. aureus, S. epidermidis, C. striatum,; also recorded: P. aeruginosa
1T-46 (FSFKQRVMFRKEVERLR) | S. aureus, S. epidermidis, C. jeikeium,; also recorded: C. xerosis, C. striatum,; also recorded: P. aeruginosa
1T-47 (VIKISVPGQVQMLIP) | S. mutans, S. epidermidis, P. aeruginosa
1T-48 (KLQVHHGRATHTLLLQPPLCAPGTIR) | S. aureus, S. epidermidis, C. jeikeium,; also recorded: C. xerosis, C. striatum,; also recorded: P. aeruginosa
1T-49 (SLVRIHDQQPWVTRGAFIDAARTCS) | S. aureus, S. epidermidis, C. jeikeium,; also recorded: P. aeruginosa
1T-50 (HSDEPIPNILFKSDSVH) | P. aeruginosa
1T-51 (GKPKRMPAEFIDGYGQALLAGA) | S. aureus, P. aeruginosa

Substance | Target(s)
1T-52 (DEYPAKLPLSDKGATEPRRH) | S. aureus, C. xerosis, P. aeruginosa
1T-53 (SDILAEMFEKGELQTLVKDAAAKANA) | P. aeruginosa
1T-54 (RWVSCNPSWRIQ) | S. epidermidis, C. xerosis, C. striatum,; also recorded: P. aeruginosa
1T-55 (NHKTLKEWKAKWGPEAVESWATLLG) | C. xerosis, P. aeruginosa
1T-56 (LALIGAGIWMIRKG) | C. xerosis, P. aeruginosa
1T-57 (RLEYRRLETQVEENPESGRRPMRG) | P. aeruginosa
1T-58 (CDDLHALERAGKLDALLSA) | P. aeruginosa
1T-59 (AVGNNLGKDNDSGHRGKKHRKHKHR) | S. aureus, S. epidermidis, P. aeruginosa
1T-60 (YLTSLGLDAAEQAQGLLTILKG) | S. aureus, S. epidermidis, C. jeikeium,; also recorded: C. striatum, P. aeruginosa
1T-61 (HATLLPAVREAISRQLLPALVPRG) | P. aeruginosa
1T-62 (GCKGCAQRDPCAEPEPYFRLR) | S. epidermidis, P. aeruginosa
1T-63 (EPLILKELVRNLFLFCYARALR) | S. aureus, S. epidermidis, C. jeikeium,; also recorded: C. xerosis, C. striatum,; also recorded: P. aeruginosa
1T-64 (QTVHHIHMHVLGQRQMHWPPG) | S. aureus, S. epidermidis, C. jeikeium,; also recorded: C. xerosis, C. striatum,; also recorded: P. aeruginosa
1T-66 (DTDCLSRAYAQRIDELDKQYAGIDKPL) | S. mutans, S. aureus, S. epidermidis,; also recorded: C. jeikeium, C. xerosis,; also recorded: C. striatum, P. aeruginosa
1T-67 (GQRQRLTCGRVSGCSEGPSREAAR) | S. aureus, S. epidermidis, C. jeikeium,; also recorded: C. xerosis, C. striatum,; also recorded: P. aeruginosa
1T-69 (ILSQEADRKKLF) | S. mutans, P. aeruginosa
1T-71 (KIDTNQWPPNKEG) | P. aeruginosa
1T-72 (EPTDGVACKER) | P. aeruginosa
1T-73 (GWWEELLHETILSKFKITKALELPIQL) | S. pneumoniae
1T-74 (DIDWGRKISCAAGVAYGAIDGCATTV) | S. pneumoniae
1T-75 (GVARGLQLGIKTRTQWGAATGAA) | S. pneumoniae
